Experimental data as given in ChEMBL document CHEMBL3785084, “Rational modification of the lead molecule: Enhancement in the anticancer and dihydrofolate reductase inhibitory activity” (Bioorg Med Chem Lett, 2016).

What was measured:
Type in all cases: functional
[1] = test system: CCRF-CEM; assay: Cytotoxicity against human CCRF-CEM cells assessed as cell growth at 10^-5 M after 48 hrs by sulforhodamine B assay; conditions: read-out: Activity
[2] = Cytotoxicity against human MOLT4 cells assessed as cell growth at 10^-5 M after 48 hrs by sulforhodamine B assay; conditions: MOLT-4, 48 h, read-out: Activity
[3] = Cytotoxicity against human RPMI8226 cells assessed as cell growth at 10^-5 M after 48 hrs by sulforhodamine B assay; conditions: RPMI-8226, 48 h, read-out: Activity
[4] = test system: A549; assay: Cytotoxicity against human A549 cells assessed as cell growth at 10^-5 M after 48 hrs by sulforhodamine B assay; conditions: A549, 48 h, read-out: Activity
[5] = test system: EKVX; assay: Cytotoxicity against human EKVX cells assessed as cell growth at 10^-5 M after 48 hrs by sulforhodamine B assay; conditions: read-out: Activity
[6] = Cytotoxicity against human HOP92 cells assessed as cell growth at 10^-5 M after 48 hrs by sulforhodamine B assay; conditions: HOP-92, 48 h, read-out: Activity
[7] = test system: NCI-H226; assay: Cytotoxicity against human NCI-H226 cells assessed as cell growth at 10^-5 M after 48 hrs by sulforhodamine B assay; conditions: NCI-H226, 48 h, read-out: Activity
[8] = test system: NCI-H23; assay: Cytotoxicity against human NCI-H23 cells assessed as cell growth at 10^-5 M after 48 hrs by sulforhodamine B assay; conditions: NCI-H23, 48 h, read-out: Activity
[9] = test system: NCI-H460; assay: Cytotoxicity against human NCI-H460 cells assessed as cell growth at 10^-5 M after 48 hrs by sulforhodamine B assay; conditions: NCI-H460, 48 h, read-out: Activity
[10] = Cytotoxicity against human HCC2998 cells assessed as cell growth at 10^-5 M after 48 hrs by sulforhodamine B assay; conditions: HCC 2998, 48 h, read-out: Activity
[11] = Cytotoxicity against human HCT116 cells assessed as cell growth at 10^-5 M after 48 hrs by sulforhodamine B assay; conditions: HCT-116, 48 h, read-out: Activity
[12] = Cytotoxicity against human HCT15 cells assessed as cell growth at 10^-5 M after 48 hrs by sulforhodamine B assay; conditions: HCT-15, 48 h, read-out: Activity
[13] = Cytotoxicity against human SW620 cells assessed as cell growth at 10^-5 M after 48 hrs by sulforhodamine B assay; conditions: SW-620, 48 h, read-out: Activity
[14] = Cytotoxicity against human SF268 cells assessed as cell growth at 10^-5 M after 48 hrs by sulforhodamine B assay; conditions: SF-268, 48 h, read-out: Activity
[15] = Cytotoxicity against human SF295 cells assessed as cell growth at 10^-5 M after 48 hrs by sulforhodamine B assay; conditions: SF-295, 48 h, read-out: Activity
[16] = Cytotoxicity against human SF539 cells assessed as cell growth at 10^-5 M after 48 hrs by sulforhodamine B assay; conditions: SF-539, 48 h, read-out: Activity
[17] = Cytotoxicity against human SNB19 cells assessed as cell growth at 10^-5 M after 48 hrs by sulforhodamine B assay; conditions: SNB-19, 48 h, read-out: Activity
[18] = Cytotoxicity against human SNB75 cells assessed as cell growth at 10^-5 M after 48 hrs by sulforhodamine B assay; conditions: SNB-75, 48 h, read-out: Activity
[19] = Cytotoxicity against human LOXIMVI cells assessed as cell growth at 10^-5 M after 48 hrs by sulforhodamine B assay; conditions: LOX IMVI, read-out: Activity
[20] = test system: Malme-3M; assay: Cytotoxicity against human MALME-3M cells assessed as cell growth at 10^-5 M after 48 hrs by sulforhodamine B assay; conditions: read-out: Activity
[21] = test system: M14; assay: Cytotoxicity against human M14 cells assessed as cell growth at 10^-5 M after 48 hrs by sulforhodamine B assay; conditions: M14, 48 h, read-out: Activity
[22] = test system: MDA-MB-435; assay: Cytotoxicity against human MDA-MB-435 cells assessed as cell growth at 10^-5 M after 48 hrs by sulforhodamine B assay; conditions: MDA-MB-435, 48 h, read-out: Activity
[23] = test system: SK-MEL-2; assay: Cytotoxicity against human SK-MEL-2 cells assessed as cell growth at 10^-5 M after 48 hrs by sulforhodamine B assay; conditions: SK-MEL-2, 48 h, read-out: Activity
[24] = Cytotoxicity against human UACC62 cells assessed as cell growth at 10^-5 M after 48 hrs by sulforhodamine B assay; conditions: UACC-62, 48 h, read-out: Activity
[25] = Cytotoxicity against human IGROV1 cells assessed as cell growth at 10^-5 M after 48 hrs by sulforhodamine B assay; conditions: IGROV-1, 48 h, read-out: Activity
[26] = Cytotoxicity against human OVCAR3 cells assessed as cell growth at 10^-5 M after 48 hrs by sulforhodamine B assay; conditions: OVCAR-3, 48 h, read-out: Activity
[27] = Cytotoxicity against human OVCAR5 cells assessed as cell growth at 10^-5 M after 48 hrs by sulforhodamine B assay; conditions: OVCAR-5, 48 h, read-out: Activity
[28] = Cytotoxicity against human OVCAR8 cells assessed as cell growth at 10^-5 M after 48 hrs by sulforhodamine B assay; conditions: OVCAR-8, 48 h, read-out: Activity
[29] = test system: 786-0; assay: Cytotoxicity against human 786-0 cells assessed as cell growth at 10^-5 M after 48 hrs by sulforhodamine B assay; conditions: 786-0, 48 h, read-out: Activity
[30] = test system: A498; assay: Cytotoxicity against human A498 cells assessed as cell growth at 10^-5 M after 48 hrs by sulforhodamine B assay; conditions: A498, 48 h, read-out: Activity
[31] = test system: SN12C; assay: Cytotoxicity against human SN12C cells assessed as cell growth at 10^-5 M after 48 hrs by sulforhodamine B assay; conditions: read-out: Activity
[32] = Cytotoxicity against human DU145 cells assessed as cell growth at 10^-5 M after 48 hrs by sulforhodamine B assay; conditions: DU-145, 48 h, read-out: Activity
[33] = test system: MCF7; assay: Cytotoxicity against human MCF7 cells assessed as cell growth at 10^-5 M after 48 hrs by sulforhodamine B assay; conditions: MCF7, 48 h, read-out: Activity
[34] = test system: MDA-MB-231; assay: Cytotoxicity against human MDA-MB-231 cells assessed as cell growth at 10^-5 M after 48 hrs by sulforhodamine B assay; conditions: MDA-MB-231, 48 h, read-out: Activity
[35] = Cytotoxicity against human Hs 578T cells assessed as cell growth at 10^-5 M after 48 hrs by sulforhodamine B assay; conditions: read-out: Activity
[36] = Cytotoxicity against human BT549 cells assessed as cell growth at 10^-5 M after 48 hrs by sulforhodamine B assay; conditions: BT-549, 48 h, read-out: Activity
[37] = test system: MDA-MB-468; assay: Cytotoxicity against human MDA-MB-468 cells assessed as cell growth at 10^-5 M after 48 hrs by sulforhodamine B assay; conditions: MDA-MB-468, 48 h, read-out: Activity

O=C1NC(=O)C(=Cc2cn(CC(O)Cn3cc(C=C4C(=O)NC(=O)NC4=O)c4ccccc43)c3ccccc23)C(=O)N1
growth at 10 µM [1]: 105%
growth at 10 µM [2]: 110%
growth at 10 µM [3]: 98.5%
growth at 10 µM [4]: 85.9%
growth at 10 µM [5]: 101%
growth at 10 µM [6]: 101%
growth at 10 µM [7]: 108%
growth at 10 µM [8]: 94.7%
growth at 10 µM [9]: 55.1%
growth at 10 µM [10]: 94.6%
growth at 10 µM [11]: 79.2%
growth at 10 µM [12]: 103%
growth at 10 µM [13]: 102%
growth at 10 µM [14]: 93.4%
growth at 10 µM [15]: 103%
growth at 10 µM [16]: 108%
growth at 10 µM [17]: 103%
growth at 10 µM [18]: 90.2%
growth at 10 µM [19]: 98%
growth at 10 µM [20]: 97.7%
growth at 10 µM [21]: 98.7%
growth at 10 µM [22]: 109%
growth at 10 µM [23]: 113%
growth at 10 µM [24]: 106%
growth at 10 µM [25]: 97.3%
growth at 10 µM [26]: 109%
growth at 10 µM [27]: 109%
growth at 10 µM [28]: 117%
growth at 10 µM [29]: 91.3%
growth at 10 µM [30]: 106%
growth at 10 µM [31]: 107%
growth at 10 µM [32]: 104%
growth at 10 µM [33]: 91.1%
growth at 10 µM [34]: 105%
growth at 10 µM [35]: 108%
growth at 10 µM [36]: 82.6%
growth at 10 µM [37]: 96.7%

CN1C(=O)C(=Cc2cn(CC(O)Cn3cc(C=C4C(=O)N(C)C(=O)N(C)C4=O)c4ccccc43)c3ccccc23)C(=O)N(C)C1=O
growth at 10 µM [1]: 98.3%
growth at 10 µM [2]: 106%
growth at 10 µM [3]: 86.2%
growth at 10 µM [4]: 96.8%
growth at 10 µM [5]: 91.7%
growth at 10 µM [6]: 80.4%
growth at 10 µM [7]: 86%
growth at 10 µM [8]: 87.9%
growth at 10 µM [9]: 33.1%
growth at 10 µM [10]: 104%
growth at 10 µM [11]: 80.3%
growth at 10 µM [12]: 105%
growth at 10 µM [13]: 102%
growth at 10 µM [14]: 92%
growth at 10 µM [15]: 107%
growth at 10 µM [16]: 103%
growth at 10 µM [17]: 102%
growth at 10 µM [18]: 72.3%
growth at 10 µM [19]: 97%
growth at 10 µM [20]: 87.7%
growth at 10 µM [21]: 89.7%
growth at 10 µM [22]: 107%
growth at 10 µM [23]: 118%
growth at 10 µM [24]: 88.3%
growth at 10 µM [25]: 78.8%
growth at 10 µM [26]: 95.2%
growth at 10 µM [27]: 90.5%
growth at 10 µM [28]: 114%
growth at 10 µM [29]: 100%
growth at 10 µM [30]: 98.4%
growth at 10 µM [31]: 99.1%
growth at 10 µM [32]: 106%
growth at 10 µM [33]: 91.8%
growth at 10 µM [34]: 78.3%
growth at 10 µM [35]: 97.3%
growth at 10 µM [36]: 92.3%
growth at 10 µM [37]: 19.4%

O=C1Nc2ccccc2/C1=C/c1cn(CC(O)Cn2cc(/C=C3\C(=O)Nc4ccccc43)c3ccccc32)c2ccccc12 (stereo unspecified)
growth at 10 µM [1]: -30.6%
growth at 10 µM [2]: -29.4%
growth at 10 µM [3]: -41.7%
growth at 10 µM [4]: -11.6%
growth at 10 µM [5]: -62.3%
growth at 10 µM [6]: -73.9%
growth at 10 µM [7]: -74.8%
growth at 10 µM [8]: -67.3%
growth at 10 µM [9]: -65.1%
growth at 10 µM [10]: -16.9%
growth at 10 µM [11]: -64.2%
growth at 10 µM [12]: -69.8%
growth at 10 µM [13]: -60.4%
growth at 10 µM [14]: -62%
growth at 10 µM [15]: -84.7%
growth at 10 µM [16]: -77.7%
growth at 10 µM [17]: -43%
growth at 10 µM [18]: -95.9%
growth at 10 µM [19]: -84.5%
growth at 10 µM [20]: -76%
growth at 10 µM [21]: -81.4%
growth at 10 µM [22]: -87.6%
growth at 10 µM [23]: -57.6%
growth at 10 µM [24]: -75.2%
growth at 10 µM [25]: -67.4%
growth at 10 µM [26]: -85.1%
growth at 10 µM [27]: -34.1%
growth at 10 µM [28]: 1.35%
growth at 10 µM [29]: -70.8%
growth at 10 µM [30]: -73.2%
growth at 10 µM [31]: -53.6%
growth at 10 µM [32]: -90.5%
growth at 10 µM [33]: -67.5%
growth at 10 µM [34]: -80%
growth at 10 µM [35]: -22.2%
growth at 10 µM [36]: -55.3%
growth at 10 µM [37]: -84.8%
